Read-outs that look alike come from different tables or passages of the source.
What was measured:
Assay type in all cases: cell-based
[1] = tested on: Human prostate cancer cells LNCaP; assay: Androgen-dependent inhibitory activity on proliferation of prostate cancer cells; settings: read-out: GI50 value
Description: Human prostate cancer cells LNCaP (Non-Patent Literature 5) having […] androgen receptor gene were seeded in a clear bottom 96 well microplate (BD) at 4.0×10^3/well with phenol red free RPMI1640 containing 5% DCC-FBS (hereinbelow, the medium is referred to as an evaluation medium), and then cultured overnight. The culture was added with the evaluation medium containing DHT (final concentration of DHT: 10 nmol/L) or the evaluation medium containing the compound of Examples or the compound of Comparative Examples (final concentration of the compound of Examples or the compound of Comparative Examples: 10, 30, 100, 300, 1000, 3000, 10000, or 30000 nmol/L), followed by culture for 72 hours. Then, the number of viable cells was counted. The number of viable cells was measured by using Cell Counting Kit-8 (DOJINDO LABORATORIES).

[2] = tested on: AR positive human prostate cancer cells VCaP; assay: Agonist activity for AR (cell proliferation rate of VCaP cells); settings: 72 hours, 2 to 10000 nmol/L, more than 10% at any concentration = agonist activity for AR
Outline: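 VCaP cells seeded at 1.5×10^4/well in phenol-red-free RPMI1640 with 5% DCC-FBS, then exposed 72 h to compound at 2–10000 nmol/L (9 concentrations). Viable cells counted by CellTiter-Glo; proliferation rate (%) relative to medium-only control, agonist activity called when >10% at any concentration.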

[3] = biological target: androgen receptor (Homo sapiens (Human), UniProt P10275, T878A); assay: Activity of reducing expression level of androgen receptor (Western blotting of LNCaP cell lysate); settings: 48 hours
Outline: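 LNCaP prostate cancer cells (AR T878A) in phenol red-free RPMI1640 with 5% FBS treated with compound at final 10000 nmol/L for 48 h. Cell lysates analysed by Western blot with anti-AR antibody; band quantified by chemiluminescence.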

[4] = biological target: human androgen receptor (Homo sapiens (Human), UniProt P10275); assay: Antagonist activity for AR (pMMTV-luc reporter transcription activity in transfected COS-7 cells, DHT 1 nmol/L); settings: 50% transcription activity inhibition concentration; COS-7 cells with pMMTV-luc and pEX-hAR, DHT 1 nmol/L, 24 hours
Outline: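 COS-7 cells co-transfected with pMMTV-luc reporter and CMV-driven human AR expression vector, cultured overnight in phenol red-free RPMI1640 with 10% charcoal-treated FBS. Antagonism measured against 1 nmol/L DHT by luciferase transcription activity.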

[5] = 50% proliferation inhibition concentration, DHT 10 nmol/L, 72 hours

Chain of androgen receptor (P10275 whole entry T878A): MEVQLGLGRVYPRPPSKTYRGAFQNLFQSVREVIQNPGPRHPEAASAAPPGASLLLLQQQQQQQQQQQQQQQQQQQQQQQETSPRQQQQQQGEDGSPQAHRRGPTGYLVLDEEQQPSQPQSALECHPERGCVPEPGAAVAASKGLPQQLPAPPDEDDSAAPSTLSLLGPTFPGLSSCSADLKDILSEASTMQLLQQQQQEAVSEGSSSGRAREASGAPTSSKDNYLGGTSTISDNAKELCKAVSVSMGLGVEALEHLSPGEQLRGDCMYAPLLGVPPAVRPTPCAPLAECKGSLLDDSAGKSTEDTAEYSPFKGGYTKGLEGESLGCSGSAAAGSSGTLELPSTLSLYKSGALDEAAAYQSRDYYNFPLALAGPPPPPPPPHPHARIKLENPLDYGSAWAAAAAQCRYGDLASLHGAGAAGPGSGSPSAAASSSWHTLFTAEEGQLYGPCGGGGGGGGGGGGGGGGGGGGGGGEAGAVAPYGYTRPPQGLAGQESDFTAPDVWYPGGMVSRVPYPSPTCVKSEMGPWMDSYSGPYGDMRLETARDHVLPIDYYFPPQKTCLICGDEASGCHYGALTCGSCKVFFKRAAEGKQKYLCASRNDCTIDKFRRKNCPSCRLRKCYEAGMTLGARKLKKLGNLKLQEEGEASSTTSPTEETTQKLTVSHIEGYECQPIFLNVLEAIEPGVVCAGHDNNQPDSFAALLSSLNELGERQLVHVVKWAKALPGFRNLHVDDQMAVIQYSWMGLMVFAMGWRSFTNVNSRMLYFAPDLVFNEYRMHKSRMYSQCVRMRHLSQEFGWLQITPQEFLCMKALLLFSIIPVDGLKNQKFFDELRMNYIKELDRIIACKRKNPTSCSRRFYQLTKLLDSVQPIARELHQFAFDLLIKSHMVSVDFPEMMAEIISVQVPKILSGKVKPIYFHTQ
Chain of human androgen receptor (P10275 whole entry): as the sequence (P10275 whole entry T878A) above, with A878T counted along it

| SMILES | GI50 [1, 5] | Cell proliferation rate (%) [2] | 10 μM AR expression reducing activity [3] | IC50 [4] | GI50 ([1]; 72 h) |
| --- | --- | --- | --- | --- | --- |
| CC(C)(O)CNC(=O)c1ccc(Nc2ncnc3c2CCN(c2ccc(C#N)c(C(F)(F)F)c2)C3)nn1 [Example 32, 6-((7-(4-cyano-3-(trifluoromethyl)phenyl)-5,6,7,8-tetrahydropyrido[3,4-d]pyrimidin-4-yl)amino)-N-(2-hydroxy-2-methylpropyl)pyridazine-3-carboxamide] | 3100 nM | −2.2% | reduced (When the AR expression reducing activity is 50% or more, it is described as “reduced”) | 60 nM | – |
| CC(C)(O)CNC(=O)c1cnc(Nc2ncnc3c2CCN(c2ccc(C#N)c(C(F)(F)F)c2)C3)nc1 [Example 34, 2-((7-(4-cyano-3-(trifluoromethyl)phenyl)-5,6,7,8-tetrahydropyrido[3,4-d]pyrimidin-4-yl)amino)-N-(2-hydroxy-2-methylpropyl)pyrimidine-5-carboxamide] | 3800 nM | 6.4% | reduced (When the AR expression reducing activity is 50% or more, it is described as “reduced”) | 700 nM | – |
| N#Cc1ccc(N2CCc3c(ncnc3Nc3ccc(C(=O)NCc4nc(C(F)(F)F)cs4)cn3)C2)cc1C(F)(F)F [Example 36, 6-((7-(4-cyano-3-(trifluoromethyl)phenyl)-5,6,7,8-tetrahydropyrido[3,4-d]pyrimidin-4-yl)amino)-N-((4-(trifluoromethyl)thiazol-2-yl)methyl)nicotinamide] | 300 nM | −1.9% | reduced (When the AR expression reducing activity is 50% or more, it is described as “reduced”) | 170 nM | – |
| C[C@@H](NC(=O)c1ccc(Nc2ncnc3c2CCN(c2ccc(C#N)c(C(F)(F)F)c2)C3)nc1)c1nnco1 [Example 38, (R)—N-(1-(1,3,4-oxadiazol-2-yl)ethyl)-6-((7-(4-cyano-3-(trifluoromethyl)phenyl)-5,6,7,8-tetrahydropyrido[3,4-d]pyrimidin-4-yl)amino)nicotinamide] | 1100 nM | −2.7% | reduced (When the AR expression reducing activity is 50% or more, it is described as “reduced”) | 560 nM | – |
| C[C@@H](NC(=O)c1ccc(Nc2ncnc3c2CCN(c2ccc(C#N)c(C(F)(F)F)c2)C3)nc1)c1nnc(C(F)(F)F)o1 [Example 40, (R)-6-((7-(4-cyano-3-(trifluoromethyl)phenyl)-5,6,7,8-tetrahydropyrido[3,4-d]pyrimidin-4-yl)amino)-N-(1-(5-(trifluoromethyl)-1,3,4-oxadiazol-2-yl)ethyl)nicotinamide] | 400 nM | 0.0% | reduced (When the AR expression reducing activity is 50% or more, it is described as “reduced”) | 260 nM | – |
| CC(C)(O)C1CCN(C(=O)c2cnc(Nc3ncnc4c3CCN(c3ccc(C#N)c(C(F)(F)F)c3)C4)o2)CC1 [Example 42, 4-(4-((5-(4-(2-hydroxypropan-2-yl)piperidin-1-carbonyl)oxazol-2-yl)amino)-5,6-dihydropyrido[3,4-d]pyrimidin-7(8H)-yl)-2-(trifluoromethyl)benzonitrile] | – | −17.2% | reduced (When the AR expression reducing activity is 50% or more, it is described as “reduced”) | 340 nM | 1100 nM |

— patent US10300067B2, “Tetrahydropyridopyrimidine compound or salt thereof” (TAIHO PHARMACEUTICAL CO., LTD., priority 2014, dated 2019)
